Assay results reported in patent US20250325492A1, “IONIZABLE LIPIDS, LIPID NANOPARTICLES FOR MRNA DELIVERY AND METHODS OF MAKING THE SAME” (University of Cincinnati, priority 2022, published 2025).

Legend:
human Jurkat T cells [1] = assay: In vitro mRNA transfection efficiency (eGFP fluorescence), flow cytometry; type: cell-based; details: 44-hour incubation; for transfection efficiency: 100 ng mRNA per well, eGFP fluorescence, FIG. 17B; for transfection efficiency, result in words: compared with the controls
Description: (§1) Flow cytometry was used to determine in vitro cellular uptake and transfection efficacy in human Jurkat T cells. The cells were seeded in a 96-well plate at a density of 40,000 cells/well. Different formulations containing 100 ng of mRNA were added to each well and were incubated for 44 hours at 37° C. The cells were washed and centrifuged at 300×g. The supernatant was discarded. After the cells were diluted in PBS, flow cytometry analysis was performed to quantify the amounts of cellular uptake and transfection efficiency.
(§2) LNPs with different compositions were tested against Jurkat cells for both cellular uptake and mRNA transfection efficiencies, as depicted in FIGS. 17A and 17B respectively. Human Jurkat cells are representative T lymphocytes which are known to be difficult to transfect. The LNPs were tested for cellular uptake using Cy5-labeled eGFP mRNA. Cy5 fluorescent dye was used to determine the cellular uptake while eGFP fluorescence was used to determine the transfection efficiency of the mRNA encapsulated in the different LNP formulations. After 44-hour incubation, fluorescence was measured using a flow cytometer. In Jurkat cells, the cellular uptake was ˜36% for the positive control, SM-102 while the transfection efficiency was ˜91%.

human Jurkat T cells [2] = assay: In vitro cellular uptake of Cy5-labeled eGFP mRNA LNPs, flow cytometry; type: cell-based; details: 44-hour incubation; for cellular uptake efficiency, result in words: compared with the controls
Description: as §1, §2

Compound	transfection efficiency (human Jurkat T cells [1]) [%]	cellular uptake efficiency, result in words (human Jurkat T cells [2])	transfection efficiency, result in words (human Jurkat T cells [1])	cellular uptake (human Jurkat T cells [2]; 100 ng mRNA per well, Cy5 fluorescence, FIG. 17A) [%]
CCCCCCCCC(CCCCCC)COC(=O)CCCCCN(CCCCCC(=O)OCC(CCCCCC)CCCCCCCC)CCN(C)C (stereo not shown) [Control 2, 1,1′-bis(2-hexyldecyl) 6,6′-[[2-(dimethylamino)ethyl]imino]bis[hexanoate], reference compound]	80	–	–	–
CCCCCCCCC(CCCCCC)COC(=O)CCCCCN(CCCCCC(=O)OCC(CCCCCC)CCCCCCCC)CCN(CCO)C1CCC1 (stereo not shown) [Lipid 1]	59	–	–	–
CCCCCCCCC(CCCCCC)COC(=O)CCCCCN(CCCCCC(=O)OCC(CCCCCC)CCCCCCCC)CCN(CCN(C)C)C1CCC1 (stereo not shown) [Lipid 2, 2-hexyldecyl 6-[(2-{cyclobutyl[2-(dimethylamino)ethyl]amino}ethyl)({6-[(2-hexyldecyl)oxy]-6-oxohexyl})amino]hexanoate]	92	outperformed the controls	outperformed the controls	–
CCCCCCCCC(CCCCCC)COC(=O)CCCCCN(CCCCCC(=O)OCC(CCCCCC)CCCCCCCC)CCN(CCCN(C)C)C1CCC1 (stereo not shown) [Lipid 3, 2-hexyldecyl 6-[(2-{cyclobutyl[3-(dimethylamino)propyl]amino}ethyl)({6-[(2-hexyldecyl)oxy]-6-oxohexyl})amino]hexanoate]	78	outperformed the controls	outperformed the controls	–
CCCCCCCCCCCOC(=O)CCCCCN(CCO)CCCCCCCC(=O)OC(CCCCCCCC)CCCCCCCC [SM-102, reference compound]	~91	–	–	~36
